In series [1] the target is T1, Hsp90 co-chaperone Cdc37 (Homo sapiens) (UniProt Q16543).
T1 sequence (whole entry): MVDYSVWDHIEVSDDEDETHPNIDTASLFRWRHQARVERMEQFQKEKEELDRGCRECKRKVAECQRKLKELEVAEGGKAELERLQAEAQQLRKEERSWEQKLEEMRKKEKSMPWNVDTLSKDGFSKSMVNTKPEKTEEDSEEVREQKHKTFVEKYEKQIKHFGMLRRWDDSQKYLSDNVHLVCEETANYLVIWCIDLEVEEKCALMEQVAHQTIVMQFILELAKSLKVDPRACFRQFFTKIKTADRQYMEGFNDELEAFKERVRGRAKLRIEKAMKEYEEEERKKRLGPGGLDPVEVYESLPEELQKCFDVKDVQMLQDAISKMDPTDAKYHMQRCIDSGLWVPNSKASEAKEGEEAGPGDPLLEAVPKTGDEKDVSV
Nature of the series: Induction of CDC37 dephosphorylation at S13 residue in PP5-KO human HCT-116 cells upto 100 uM incubated for 24 hrs by Western blot analysis. It is filed as cell-based. A general note: Immunoblotting shows a protein as a band on a membrane.

The test system of series [2] is HCT-116. In words: Antitumor activity against human HCT-116 cells xenografted in BALB/c nude mouse assessed as decrease in AT13387-induced HSP27 protein expression in tumor at 30 to 60 mg/kg, ip administered every other day for 14 days by Western blot analysis. It is filed as functional, organism-based. Conditions: dose 30-60 mg/kg, time 14.0 day.
Series [3] concerns the target T2, Serine/threonine-protein phosphatase 5 (Homo sapiens) (UniProt P53041).
T2 sequence (whole entry): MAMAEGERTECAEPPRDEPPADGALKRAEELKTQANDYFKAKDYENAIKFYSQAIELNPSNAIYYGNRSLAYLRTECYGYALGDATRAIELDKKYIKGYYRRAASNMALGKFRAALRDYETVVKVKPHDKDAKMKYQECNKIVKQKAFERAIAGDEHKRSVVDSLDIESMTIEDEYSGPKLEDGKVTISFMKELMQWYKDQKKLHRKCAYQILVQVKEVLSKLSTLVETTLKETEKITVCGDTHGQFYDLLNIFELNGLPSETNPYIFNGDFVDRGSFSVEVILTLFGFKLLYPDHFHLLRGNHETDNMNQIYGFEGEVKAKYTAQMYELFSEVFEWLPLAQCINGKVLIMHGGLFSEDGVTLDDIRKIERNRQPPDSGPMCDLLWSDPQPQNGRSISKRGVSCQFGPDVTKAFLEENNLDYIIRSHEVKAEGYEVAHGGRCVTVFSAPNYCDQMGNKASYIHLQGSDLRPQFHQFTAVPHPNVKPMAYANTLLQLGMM
Nature of the series: Binding affinity to His-tagged human PP5 TPR domain extracted from Escherichia coli BL21 by ITC analysis. In general terms: ITC needs no label: the signal is the heat of the interaction.

The test system of series [4] is HCT-116. In words: Downregulation of AT13387-induced HSP27 expression in PP5 Knockout human HCT-116 cells at 50 uM incubated for 24 hrs by Western blot analysis. It is filed as functional, cell-based.
For series [5], the system named is HCT-116. Nature of the series: Antitumor activity against human HCT-116 cells xenografted in BALB/c nude mouse at 30 to 60 mg/kg, ip administered every other day for 14 days in presence of AT13387. It counts as functional, organism-based. The settings on record: dose 30-60 mg/kg, time 14.0 day.
Series [6] relates to HCT-116. In words: Downregulation of AT13387-induced HSP40 expression in human HCT-116 cells at 50 uM incubated for 24 hrs by Western blot analysis. It counts as functional, cell-based.
The subject of series [7] is HCT-116. Nature of the series: Effect on HSP27 expression level in human HCT-116 cells at 1 to 100 uM incubated for 24 hrs by Western blot analysis. It is filed as functional, cell-based. The settings on record: dose 1-100 µM.
The subject of series [8] is HCT-116. In words: Downregulation of AT13387-induced HSP27 mRNA expression in human HCT-116 cells at 50 uM incubated for 24 hrs by qRT-PCR analysis. It is filed as functional, cell-based. (Quantitative PCR measures a nucleic acid by following its amplification.)
Series [9] deals with T3, Serine/threonine-protein phosphatase 5 (Homo sapiens, UniProt P53041).
T3 sequence (P53041 whole entry): T2 sequence (whole entry)
In words: Binding affinity to His-tagged human PP5 phosphatase domain extracted from Escherichia coli BL21 assessed as dissociation constant by ITC analysis.

Series [10] is described as follows: Toxicity in BALB/c nude mouse xenografted with human HCT-116 cells assessed as body weight loss at 60 mg/kg, ip administered every other day for 14 days. It is filed as organism-based. The settings on record: in vivo, 336 h, time 14 day.
Series [11] deals with T4, Serine/threonine-protein phosphatase 5 (Homo sapiens), P53041 [K430A].
T4 sequence (whole entry): T2 sequence (whole entry) with K430A
Nature of the series: Activation of PP5 K430A mutant (unknown origin) using pNPP as substrate assessed as increase in phosphatase activity at 10 to 200 uM incubated for 30 mins by spectrophotometric analysis. Conditions: dose 10-200 µM.

The test system of series [12] is HCT-116. Nature of the series: Downregulation of AT13387-induced HSP27 expression in human HCT-116 cells at 50 uM incubated for 24 hrs by Western blot analysis. It counts as functional, cell-based.
Series [13] relates to HCT-116. Nature of the series: Downregulation of AT13387-induced HSP40 expression in PP5 Knockout human HCT-116 cells at 50 uM incubated for 24 hrs by Western blot analysis. It counts as functional, cell-based.
For series [14], the target named is T2, Serine/threonine-protein phosphatase 5 (Homo sapiens). Nature of the series: Induction of thermal stabilization of PP5 in human HCT-116 cells assessed as increase in melting temperature at 100 uM incubated for 12 hrs at 37 to 58 degreeC by CETSA. It is filed as cell-based.
A further series has as its system SW-620. Nature of the series: Enhancement of HSP90 inhibitor AT13387-induced antiproliferative activity against human SW620 cells assessed as fold change in HSP90 inhibitor AT13387 IC50 at 50 uM incubated for 72 hrs by CCK8 assay. It is filed as functional.
Series [15] concerns HCT-116. In words: Effect on AT13387-induced HSF1 expression in human HCT-116 cells at 50 uM incubated for 24 hrs by Western blot analysis. It counts as functional, cell-based.
The subject of series [16] is HCT-116. Nature of the series: Antitumor activity against human HCT-116 cells xenografted in BALB/c nude mouse at 60 mg/kg, ip administered every other day for 14 days. It counts as functional, organism-based. The settings on record: time 14.0 day.
Series [17] in a line: Half-life in Sprague-Dawley rat at 10 mg/kg, ip measured after 8 hrs by LC-MS/MS analysis. It is filed as ADME, organism-based. Conditions: in vivo.
Series [18] has as its system HCT-116. Nature of the series: Antiproliferative activity against human HCT-116 cells assessed as inhibition of cell proliferation at 1 to 100 uM incubated for 72 hrs by CCK8 assay. Conditions: dose 1-100 µM. It is filed as functional, cell-based.

Substitutions are numbered along the chain they refer to. The source made the active and inactive calls. No cut-off for these calls is given here.

Broadly, the Kd is the equilibrium constant for the complex coming apart. The ΔTm is the shift of the melting midpoint relative to a reference. Broadly, the half-life is how long it takes for the measured level to halve. A higher half-life goes with slow loss. As to `N=c1oc2cc(F)cc(F)c2cc1C(N)=S`, the outcome (in series [1]; in [3]; in the series on HCT-116 [4]; with HCT-116 [7]; in [11]; in the series on HCT-116 [13]) was inactive. In addition, the outcome in the series on HCT-116 [15], in the series on HCT-116 [16] and in the series with HCT-116 [18] was inactive. In addition, the result with HCT-116 [2], in the series with HCT-116 [5], with HCT-116 [6], with HCT-116 [8] and in the series on HCT-116 [12] was Active. For the same compound, the Kd in [9] amounted to 0.811 µM. Further, the Activity entry in series [10] is recorded as “Non-Toxic”. Moreover, the thermal shift (ΔTm) in series [14] came out at 1.48 °C. Further, the “fold change (FC)” value with SW-620 is 2. The compound further showed a half-life in [17] of 1.59 h.
